Experiments:
Type in all cases: in vivo
rat = assay: Maximal Electroschock Test (MES), rat; conditions: ip
Source text: (§1) 1. Maximal Electroschock Test (MES) in mice, a method described by Woodbury and Davenport, Arch int. Pharmacodyn. Ther. 92, P. 97-107 (1952).
(§2) In the MES pharmacological test referred to hereinbefore, the stated compounds had the given ED50 when administered i.p. to mice or rats as appropriate.

muscle tone = assay: Muscle tone in mammals (general statement); conditions: in words
mice = assay: Maximal Electroschock Test (MES) in mice; conditions: Mus musculus, ip
Source text: as §1, §2

[1] = tested on: polysynaptic reflex contractions; assay: Muscle Relaxant Activity: polysynaptic reflex contractions in the cat; conditions: oral dose of from 100-150 mg/kg
Method: (§3) The effect of trans 3-fluoro-N-cyclopropylcinnamamide as a centrally acting muscle relaxant was determined using a method based on that described in Berger, F. M. & Bradley, W. (Br. J. Pharmac. Chemother, (1946), 1, 265-272) and Crankshaw, D. P. & Raper, C. (Br. J. Pharmac. (1970), 38, 148-156).

[2] = tested on: monosynaptic kneed-jerk reflex; assay: Muscle Relaxant Activity: monosynaptic knee-jerk reflex in the cat; conditions: oral dose of from 100-150 mg/kg
Method: as §3

Work on O=C(/C=C/c1cccc(C(F)(F)F)c1)NC1CC1 [Trans 3-Trifluoromethyl-N-Cyclopropylcinnamamide] yielded an ED50 (rat) of 56 mg/kg.
For O=C(/C=C/c1cccc(F)c1)NC1CC1 [formula (IA), 3-fluoro-N-cyclopropylcinnamamide], the muscle tone (muscle tone) was “decreases muscle tone in mammals”.
O=C(/C=C/c1cccc(Br)c1)NC1CC1 [trans 3-bromo-N-cyclopropylcinnamamide, Trans 3-Bromo-N-cyclopropylcinnamamide] was tested, and the ED50 (mice) was 77 mg/kg.
With O=C(/C=C/c1cccc(F)c1)NC1CC1 [trans 3-fluoro-N-cyclopropylcinnamamide, Trans 3-Fluoro-N-cyclopropylcinnamamide] the polysynaptic reflex contractions [1] was “suppressed polysynaptic reflex contractions”, the monosynaptic kneed-jerk reflex [2] was “without affecting the monosynaptic kneed-jerk reflex” and the ED50 (mice) was 60 mg/kg.

Source: patent US4190674A, “3-Fluoro-N-cyclopropylcinnamide” (Burroughs Wellcome Co., priority 1977, dated 1980)
